Test results as given in ChEMBL document CHEMBL1201862, “PubChem BioAssay data set” (2004).
Activity calls are given as the source filed them.

Key:
[1] = tested on: Staphylococcus aureus; assay: Inhibitors of Bacterial Quorum Sensing Structure Activity Relationship (SAR) Analysis: Dose Response Assay. [Related pubchem assays: 700, 527 ]; type: functional, organism-based
[2] = target: Neurotensin receptor type 1 (Homo sapiens, UniProt P30989); type: functional;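 also: Image-based confirmatory dose-response assay measuring agonist activity at NTR1; NTR1-expressing U2OS osteosarcoma cells imaged for beta-arrestin GFP spot formation; agonist potency where compounds increase beta-arrestin recruitment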
[3] = target: Protein phosphatase methylesterase 1 (Homo sapiens, UniProt Q9Y570); assay: PME-1 inhibitor potency by in-gel ABPP, dose response, selectivity assay for PME-1 inhibitor project, cell lysate, mouse brain cytosol, FP-rhodamine, panel member PME-1 Assay Panel member description: Inhibition of endogenously expressed PME-1 (AID 2366)
[4] = target: T1, Eukaryotic translation initiation factor 2-alpha kinase 3 (Homo sapiens, UniProt Q9NZJ5); assay: Dose response cell-based high-throughput screening assay to measure PERK inhibition. [Related pubchem assays: 1416 ]; type: functional
[5] = target: Luciferin 4-monooxygenase (Photinus pyralis, UniProt P08659); assay: firefly luciferase enzyme inhibitors, dose response, biochemical, luminescence (AID 1891)
[6] = Luminescence Cell-Based Dose Confirmation HTS to Identify Inhibitors of Platelet Dense Granule Release. [Related pubchem assays: 1663 (Primary HTS), 1678 (Summary of Project)]; type: functional
[7] = target: T1, Eukaryotic translation initiation factor 2-alpha kinase 3; assay: Counterscreen assay for PERK inhibitors: Dose response cell-based high throughput screening assay to measure inhibition of PERK at 6 hours. [Related pubchem assays: 1522, 1416 ]; type: functional
[8] = tested on: HeLa; assay: HeLa cell cytotoxicity, dose response, cytotoxicity control, 24 h, cherry-picked samples (AID 504726); type: functional, cell-based; conditions: Homo sapiens;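 also: potency for cytotoxicity as loss of luminescence signal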
[9] = target: T2, Polyadenylate-binding protein 1 (Homo sapiens, UniProt P11940); assay: PABP1 MLLE–PAM2 interaction inhibitors, dose response, miRNA deadenylation inhibitor project, biochemical, fluorescence polarization, Cy5-PAM2 peptide, secondary (AID 602260); type: functional; conditions: read-out: IC50_Mean
[10] = target: T2, Polyadenylate-binding protein 1; assay: PABP1 MLLE–PAM2 binding inhibitor potency, dose response, biochemical, fluorescence polarization, FITC-PAM2 peptide (AID 602259); type: functional; conditions: read-out: IC50_Mean
[11] = ARNT/TACC3 interaction disruptors, potency, confirmation, biochemical, AlphaScreen, cherry-picked samples (AID 651703); type: functional, Homo sapiens;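 also: His-tagged ARNT PAS-B domain paired with GST-TACC3 E629A dimer coactivator fragment; potency of inhibitors that break up the complex and lower AlphaScreen signal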
[12] = THP-1 cell cytotoxicity, dose response, cytotoxicity control for Vif-APOBEC3G degradation inhibitor project, THP-1 cells (AID 1117359); type: functional; conditions: Human immunodeficiency virus 1, THP-1
[13] = target: Acyl-homoserine lactone acylase PvdQ (Pseudomonas aeruginosa (strain LESB58), UniProt Q9I194); assay: P. aeruginosa PvdQ acylase inhibitors, dose response, biochemical, fluorescence, plate reader and imaging, cherry-picks (AID 493231)
[14] = target: Protein Rev (Human immunodeficiency virus type 1 group M subtype B (isolate WMJ22)(HIV-1), UniProt P05866); assay: HIV-1 Rev-RRE RNA binding disruptors, dose response, biochemical, protein-RNA interaction (AID 842); set-up: species or system Human immunodeficiency virus 1
[15] = target: Cyclin-dependent kinase 5/CDK5 activator 1 (Homo sapiens, UniProt Q00535); assay: CDK5/p35 kinase inhibitors, dose response, biochemical, cherry-picked samples, set 2 (AID 504545)
[16] = target: Dual specificity protein phosphatase 3 (Homo sapiens, UniProt P51452); assay: VHR1 inhibitor Ki determination, SAR follow-up, biochemical, colorimetric (AID 2004)
[17] = target: Metabotropic glutamate receptor 4 (Homo sapiens, UniProt Q14833); assay: Modulation of the Metabotropic Glutamate Receptor mGluR4: Potency at human mGluR4. Modulation of intracellular Ca2+ using Fluo-4, AM, in CHO expressing recombinant receptor [Related pubchem assays (depositor defined):AID2437, AID2807]; type: functional, cell-based
[18] = target: Metabotropic glutamate receptor 4 (Rattus norvegicus, UniProt P31423); assay: Modulation of the Metabotropic Glutamate Receptor mGluR4: Rat PAM Potency. [Related pubchem assays (depositor defined):AID2437, AID2807]; type: functional
Metabotropic glutamate receptor 4 (Rattus norvegicus, UniProt P31423), sequence (P31423 whole entry): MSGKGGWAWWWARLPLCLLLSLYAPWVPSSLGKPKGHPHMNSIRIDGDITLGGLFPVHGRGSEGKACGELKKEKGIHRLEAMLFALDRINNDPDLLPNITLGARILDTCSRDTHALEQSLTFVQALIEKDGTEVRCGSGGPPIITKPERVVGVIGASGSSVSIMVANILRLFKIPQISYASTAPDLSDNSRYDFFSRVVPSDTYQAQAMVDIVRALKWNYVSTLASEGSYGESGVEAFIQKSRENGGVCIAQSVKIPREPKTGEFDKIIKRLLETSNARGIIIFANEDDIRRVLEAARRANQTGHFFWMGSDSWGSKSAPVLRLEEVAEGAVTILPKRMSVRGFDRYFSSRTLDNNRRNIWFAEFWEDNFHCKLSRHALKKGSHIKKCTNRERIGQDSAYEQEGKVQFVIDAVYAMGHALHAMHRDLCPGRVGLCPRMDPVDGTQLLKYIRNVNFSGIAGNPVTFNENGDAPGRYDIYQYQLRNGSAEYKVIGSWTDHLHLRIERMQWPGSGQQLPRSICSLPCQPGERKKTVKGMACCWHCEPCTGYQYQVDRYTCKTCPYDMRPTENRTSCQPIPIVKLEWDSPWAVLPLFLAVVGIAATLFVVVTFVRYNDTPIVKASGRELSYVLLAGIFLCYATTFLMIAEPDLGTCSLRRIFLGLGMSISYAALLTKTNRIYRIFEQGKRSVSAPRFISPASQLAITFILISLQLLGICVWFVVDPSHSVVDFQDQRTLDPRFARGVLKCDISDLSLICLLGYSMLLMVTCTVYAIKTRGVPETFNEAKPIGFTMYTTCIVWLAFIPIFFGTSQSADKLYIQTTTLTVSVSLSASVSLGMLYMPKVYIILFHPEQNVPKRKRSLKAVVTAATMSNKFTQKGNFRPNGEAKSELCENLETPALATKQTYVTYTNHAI

T1 sequence (Q9NZJ5 whole entry): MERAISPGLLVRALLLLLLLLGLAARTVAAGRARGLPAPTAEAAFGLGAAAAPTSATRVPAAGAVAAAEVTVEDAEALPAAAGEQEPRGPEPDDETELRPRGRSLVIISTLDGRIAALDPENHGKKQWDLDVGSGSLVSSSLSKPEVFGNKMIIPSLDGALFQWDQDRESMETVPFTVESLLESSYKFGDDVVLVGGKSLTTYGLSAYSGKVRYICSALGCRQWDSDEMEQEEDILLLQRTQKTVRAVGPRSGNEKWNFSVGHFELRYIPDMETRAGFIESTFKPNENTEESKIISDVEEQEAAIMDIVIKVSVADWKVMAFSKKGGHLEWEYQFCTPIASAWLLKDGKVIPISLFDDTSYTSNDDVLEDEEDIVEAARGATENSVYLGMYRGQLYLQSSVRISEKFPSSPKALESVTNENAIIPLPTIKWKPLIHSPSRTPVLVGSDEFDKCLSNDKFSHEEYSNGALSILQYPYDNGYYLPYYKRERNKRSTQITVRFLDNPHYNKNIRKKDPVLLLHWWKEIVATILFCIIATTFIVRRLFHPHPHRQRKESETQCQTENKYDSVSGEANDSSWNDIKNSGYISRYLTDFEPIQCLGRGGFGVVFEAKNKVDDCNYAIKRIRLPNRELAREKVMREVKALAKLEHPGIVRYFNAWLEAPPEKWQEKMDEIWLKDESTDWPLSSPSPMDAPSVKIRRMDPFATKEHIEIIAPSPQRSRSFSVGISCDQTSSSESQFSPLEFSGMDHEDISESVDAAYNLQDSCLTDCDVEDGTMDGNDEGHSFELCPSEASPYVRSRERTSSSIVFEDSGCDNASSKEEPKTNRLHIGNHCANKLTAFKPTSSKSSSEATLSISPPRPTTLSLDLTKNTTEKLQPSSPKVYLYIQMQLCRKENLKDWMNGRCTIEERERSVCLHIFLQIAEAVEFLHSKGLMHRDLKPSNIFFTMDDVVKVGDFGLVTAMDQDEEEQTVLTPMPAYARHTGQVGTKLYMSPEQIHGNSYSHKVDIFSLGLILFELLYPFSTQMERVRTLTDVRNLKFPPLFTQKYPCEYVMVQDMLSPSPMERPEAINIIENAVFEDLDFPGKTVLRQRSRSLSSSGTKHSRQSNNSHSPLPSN
T2 sequence (P11940 whole entry): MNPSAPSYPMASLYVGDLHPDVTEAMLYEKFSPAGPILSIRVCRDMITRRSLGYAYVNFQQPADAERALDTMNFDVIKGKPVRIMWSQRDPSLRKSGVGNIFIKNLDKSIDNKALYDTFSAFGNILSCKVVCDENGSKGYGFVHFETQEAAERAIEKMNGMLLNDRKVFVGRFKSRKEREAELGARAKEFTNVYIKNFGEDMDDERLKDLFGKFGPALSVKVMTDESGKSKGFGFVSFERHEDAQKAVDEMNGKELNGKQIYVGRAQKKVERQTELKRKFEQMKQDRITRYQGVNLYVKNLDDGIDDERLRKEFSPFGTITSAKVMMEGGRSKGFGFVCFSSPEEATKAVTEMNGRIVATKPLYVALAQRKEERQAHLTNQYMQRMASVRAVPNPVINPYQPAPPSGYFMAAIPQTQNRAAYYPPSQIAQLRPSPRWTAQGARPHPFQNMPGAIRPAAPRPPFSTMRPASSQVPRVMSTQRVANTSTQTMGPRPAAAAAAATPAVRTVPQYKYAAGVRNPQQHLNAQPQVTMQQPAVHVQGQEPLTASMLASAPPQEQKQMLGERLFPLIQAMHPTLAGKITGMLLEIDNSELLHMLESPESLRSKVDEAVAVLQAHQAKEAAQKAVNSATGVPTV
Protein phosphatase methylesterase 1, sequence (Q9Y570 whole entry): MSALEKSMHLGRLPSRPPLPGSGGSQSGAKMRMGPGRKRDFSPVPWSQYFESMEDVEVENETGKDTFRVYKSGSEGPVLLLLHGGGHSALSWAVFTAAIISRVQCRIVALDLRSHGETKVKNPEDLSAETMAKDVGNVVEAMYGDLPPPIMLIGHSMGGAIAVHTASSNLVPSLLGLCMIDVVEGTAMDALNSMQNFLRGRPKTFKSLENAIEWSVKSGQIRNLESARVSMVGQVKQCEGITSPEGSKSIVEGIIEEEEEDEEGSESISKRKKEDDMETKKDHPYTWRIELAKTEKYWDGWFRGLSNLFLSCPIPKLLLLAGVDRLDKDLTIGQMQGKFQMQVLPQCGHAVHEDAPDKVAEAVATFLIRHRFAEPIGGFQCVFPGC
Dual specificity protein phosphatase 3, sequence (P51452 whole entry): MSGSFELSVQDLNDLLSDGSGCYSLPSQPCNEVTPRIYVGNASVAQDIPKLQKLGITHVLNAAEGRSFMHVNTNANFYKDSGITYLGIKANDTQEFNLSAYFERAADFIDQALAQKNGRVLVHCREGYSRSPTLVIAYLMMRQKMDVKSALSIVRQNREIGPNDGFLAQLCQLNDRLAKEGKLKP
Acyl-homoserine lactone acylase PvdQ, sequence (Q9I194 24-193 limits assumed): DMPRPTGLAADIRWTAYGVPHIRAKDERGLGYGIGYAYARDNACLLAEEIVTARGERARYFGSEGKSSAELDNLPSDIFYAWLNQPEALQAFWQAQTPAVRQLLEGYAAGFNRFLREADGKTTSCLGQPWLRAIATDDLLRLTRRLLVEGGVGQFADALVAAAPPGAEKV
Acyl-homoserine lactone acylase PvdQ, sequence (Q9I194 217-762 limits assumed): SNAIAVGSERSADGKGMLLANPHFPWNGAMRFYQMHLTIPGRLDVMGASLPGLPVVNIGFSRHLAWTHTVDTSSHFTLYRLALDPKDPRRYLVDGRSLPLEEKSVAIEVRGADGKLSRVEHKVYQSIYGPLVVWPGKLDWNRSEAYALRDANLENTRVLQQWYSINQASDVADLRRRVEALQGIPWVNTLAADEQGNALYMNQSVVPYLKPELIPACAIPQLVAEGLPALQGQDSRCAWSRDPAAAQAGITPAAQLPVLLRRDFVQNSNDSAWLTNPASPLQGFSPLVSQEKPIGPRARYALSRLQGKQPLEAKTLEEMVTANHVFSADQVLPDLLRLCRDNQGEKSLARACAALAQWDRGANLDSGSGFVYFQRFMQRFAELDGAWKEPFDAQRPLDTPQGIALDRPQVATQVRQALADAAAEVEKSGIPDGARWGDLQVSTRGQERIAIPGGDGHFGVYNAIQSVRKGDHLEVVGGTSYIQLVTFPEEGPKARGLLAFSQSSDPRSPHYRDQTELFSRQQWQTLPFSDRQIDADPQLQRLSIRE
Metabotropic glutamate receptor 4 (Homo sapiens, UniProt Q14833), sequence (Q14833 whole entry): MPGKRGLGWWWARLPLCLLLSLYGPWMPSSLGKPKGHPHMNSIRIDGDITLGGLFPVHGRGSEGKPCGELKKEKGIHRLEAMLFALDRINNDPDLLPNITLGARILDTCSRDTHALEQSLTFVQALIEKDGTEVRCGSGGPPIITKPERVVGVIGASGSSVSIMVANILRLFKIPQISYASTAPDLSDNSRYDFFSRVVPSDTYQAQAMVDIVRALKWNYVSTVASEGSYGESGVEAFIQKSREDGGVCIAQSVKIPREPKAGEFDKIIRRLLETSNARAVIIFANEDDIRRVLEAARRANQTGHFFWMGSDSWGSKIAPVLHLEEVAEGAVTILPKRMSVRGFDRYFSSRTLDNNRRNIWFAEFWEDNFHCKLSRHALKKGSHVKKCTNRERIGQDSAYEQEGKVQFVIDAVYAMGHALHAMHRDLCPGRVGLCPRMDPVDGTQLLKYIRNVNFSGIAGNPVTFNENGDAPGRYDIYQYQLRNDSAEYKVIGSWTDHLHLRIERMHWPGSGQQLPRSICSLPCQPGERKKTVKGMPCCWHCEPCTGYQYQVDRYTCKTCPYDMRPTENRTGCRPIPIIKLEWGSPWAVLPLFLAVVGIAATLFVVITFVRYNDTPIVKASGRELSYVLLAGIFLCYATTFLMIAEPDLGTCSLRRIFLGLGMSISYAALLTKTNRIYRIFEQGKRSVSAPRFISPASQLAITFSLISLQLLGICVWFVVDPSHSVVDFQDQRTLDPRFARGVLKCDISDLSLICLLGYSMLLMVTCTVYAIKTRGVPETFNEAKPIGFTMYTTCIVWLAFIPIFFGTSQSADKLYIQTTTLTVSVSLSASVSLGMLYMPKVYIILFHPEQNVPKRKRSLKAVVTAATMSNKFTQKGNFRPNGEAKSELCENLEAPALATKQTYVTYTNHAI
Protein Rev, sequence (P05866 whole entry): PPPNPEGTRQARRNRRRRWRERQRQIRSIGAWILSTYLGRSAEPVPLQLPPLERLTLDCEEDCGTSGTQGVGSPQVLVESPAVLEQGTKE

Q: Which IC50 [1] does the source give for O=C(O)c1ccccc1NC(c1ccccc1)c1ccc(Cl)cc1 (centres undefined) here?
A: 0.448 µM (active)

Q: For O=C1NC(=O)N(Cc2ccc(F)cc2)C(=O)/C1=C/c1cccs1, which EC50 [2] is on record?
A: 12.6 µM (active)

Q: With N#C/C(=C\c1cccn1S(=O)(=O)c1ccccc1)C(=O)c1ccccc1 as the compound, how does the IC50 [3] read?
A: > 20 µM (inactive)

Q: With COc1ccc(N=Nc2n(C)c3ccccc3[n+]2C)cc1 as the compound, how does the EC50 [4] read?
A: > 55.7 µM (not active)

Q: And the EC50 [5]?
A: 0.631 µM (active)

Q: What about the EC50 [6] of the same compound?
A: 0.738 µM (active)

Q: And the EC50 [7]?
A: > 55.7 µM (not active)

Q: Which results are given for CN(Cc1cnc2nc(N)nc(N)c2n1)c1ccc(C(=O)NC(CCC(=O)O)C(=O)O)cc1 (centres undefined)?
A: AC50 [8]: 0.629 µM (active); IC50 [9]: 52.1 µM (inactive); IC50 [10]: 41.6 µM (inactive); AC50 [11]: 74.5 µM (active); CC50 [12]: 0.23 µM (active)

Q: With Cc1cccc(NC(=O)Nc2cc(C)on2)c1 as the compound, how does the AC50 [13] read?
A: 7.61 µM (active)

Q: What does the source list for COc1ccc(Nc2nc(N)nc(CN(C)C3CCCCC3)n2)cc1?
A: IC50 [14]: > 79.4 µM (not active); AC50 [11]: 90.7 µM (active)

Q: With Cc1ccc(-n2nc(C)c3c2C(Br)C(C)(C)CC3=O)nc1 (centres undefined) as the compound, how does the AC50 [15] read?
A: 43.3 µM (active)

Q: Which Ki [16] does the source give for COc1ccc(-c2cc(C(=O)NCCc3ccccc3)c3ccccc3n2)c(OC)c1 here?
A: 27.9 µM (inactive)

Q: Which EC50 [17] does the source give for O=C(Nc1ccc2c(c1)OCO2)c1ccccn1 here?
A: 9.66 µM (active)

Q: What about the EC50 [18] of the same compound?
A: 7.17 µM (active)
